In PMC7887271, “Fast acting allosteric phosphofructokinase inhibitors block trypanosome glycolysis and cure acute African trypanosomiasis in mice” (Nature Communications, 2021):
“And” between values parts separate entries of the source, which are not always exact repeats. Equal values may be shown once.

System: T. b. brucei GVR35-Luc2
Experiment: T. b. brucei GVR35-Luc2 time-to-kill assay (luciferin)
Assay type: cell-based
Settings: for Luminescence (medium-subtracted), Average: average of replicates; for % Cell viability, individual replicates / % Inhibition, individual replicates / Luminescence (medium-subtracted), individual replicates: replicate wells; for Luminescence, Average / Luminescence, individual replicates: Time to kill assay for GVR35 cells
Protocol: Enzyme activity was measured using an aldolase/TIM linked assay at 25 °C. […] Experiments were carried out in duplicate. Data are presented as mean values ± standard deviation. […] Source data are provided as a Source Data File. b Kill time of CTCB-405 compared with existing HAT drugs in the clinic. […] Over 99% of trypanosomes were killed in under 30 min compared with much slower killing rates for the other drugs. The points on the graph for CTCB-405 were determined from two independent biological replicate experiments with each time point measured twice (using duplicate technical replicates). The ESD for each point on the graph is between 0.7 and 1.4%. For drugs in clinical use each point on the graph is the average of two technical replicates from one experiment (with a maximum difference of 7.8% for any of the points). Source data are provided as a Source Data File.
As predicted from the biology of the BSF that relies wholly on glycolysis for ATP production, inhibition of the pathway results in a very fast TTK. Two experimental methods were used to measure ATP levels as a real-time indicator of viability. For Tb427 parasites, a Cell Titre Glo kit was used and for the TbGVR35 bioluminescent strain, killing was assessed by adding luciferin which requires ATP to produce a luminescent signal (Supplementary Methods 4.3 and 4.4). […] The BSF of T. brucei cannot produce ATP by oxidative phosphorylation and is solely dependent on flux through the glycolytic pathway. The clear correlation between inhibitor dose and reduction in ATP production, as observed in the TTK assays strongly supports the proposed mode of action of the CTCB compounds is by blocking glycolysis. It is a long-established experimental observation that withdrawal of glucose nutrient leads to rapid loss of motility and cell death. It has recently been shown that the BSF of T. brucei can proliferate on high levels of glycerol; however, we have shown that addition of glycerol to the medium has little effect on parasite killing by the CTCB compounds (Supplementary Table 3).
The killing of T. b. brucei GVR35-Luc2 was assessed by adding D-luciferin to live cells resulting in the production of light in the presence of ATP and luciferase activity. Compounds of interest were serially diluted from 16 µM to 0.5 µM in Modified HMI-9 medium and added into sterile white, flat bottom 96-well plate (Greiner Inc.). 32,000 trypanosomes were added to each well. The plates were incubated at 37 °C and 5% CO2. At the end of each incubation, 200 µg/ml of D-luciferin was added to each well and incubated for 10 min. Luminescence was measured using a BMG plate reader and percentage cell viability versus incubation time was determined.

[1] = 0.5 h, mean, suramin, fexinidazole, SCYX-7158 11 µM, CTCB-405 4 µM
[2] = 1 h, mean, suramin, fexinidazole, SCYX-7158 11 µM, CTCB-405 4 µM
[3] = 6 h, mean, suramin, fexinidazole, SCYX-7158 11 µM, CTCB-405 4 µM
[4] = 8 h, mean, suramin, fexinidazole, SCYX-7158 11 µM, CTCB-405 4 µM
[5] = GVR35 TTK, 24 h incubation, average
[6] = GVR35 TTK, 24 h incubation, from average
[7] = GVR35 TTK, 24 h sheet, summary line marked "4"

## Cc1ccc(C(=O)Nc2ccc(S(=O)(=O)O)c3cc(S(=O)(=O)O)cc(S(=O)(=O)O)c23)cc1NC(=O)c1cccc(NC(=O)Nc2cccc(C(=O)Nc3cc(C(=O)Nc4ccc(S(=O)(=O)O)c5cc(S(=O)(=O)O)cc(S(=O)(=O)O)c45)ccc3C)c2)c1 [Suramin, suramin]
  TTK (time-to-kill) value: > 20 h
0.5 h
  % Cell viability, single replicates: 91% and 97%
  % Inhibition, single replicates: 9% and 2.59%
0.5 h, average
  % Cell viability: 94%
[1]
  % Inhibition: 6%
1 h
  % Cell viability, single replicates: 87% and 92%
  % Inhibition, single replicates: 13% and 7.55%
1 h, average
  % Cell viability: 90%
[2]
  % Inhibition: 10%
2 h
  % Cell viability, single replicates: 95% and 89%
  % Inhibition, single replicates: 4.69% and 11%
2 h, average
  % Cell viability: 92%
2 h, mean, suramin, fexinidazole, SCYX-7158 11 µM, CTCB-405 4 µM
  % Inhibition: 8%
4 h
  % Cell viability, single replicates: 86%
  % Inhibition, single replicates: 14% and 8.56%
4 h, average
  % Cell viability: 89%
6 h
  % Cell viability, single replicates: 80% and 82%
  % Inhibition, single replicates: 20% and 18%
6 h, average
  % Cell viability: 81%
[3]
  % Inhibition: 19%
8 h
  % Cell viability, single replicates: 62% and 63%
  % Inhibition, single replicates: 38% and 37%
8 h, average
  % Cell viability: 62%
[4]
  % Inhibition: 38%
[5]
  % Cell viability, Average: 1.08%
GVR35 TTK, 24 h incubation
  Luminescence (medium-subtracted), Average: 1271
  % Cell viability, individual replicates: 1.06% and 1.11%
  % Inhibition, individual replicates: 99%
  Luminescence (medium-subtracted), individual replicates: 1370.5 and 1171.5
[6]
  % Inhibition: 99%
[7]
  % Cell viability: 1.08%
0.5 hour incubation
  Luminescence, Average: 8640
  Luminescence, individual replicates: 8520 and 8761
1hour incubation
  Luminescence, Average: 10793
  Luminescence, individual replicates: 10604 and 10981
2hour incubation
  Luminescence, Average: 13042
  Luminescence, individual replicates: 13027 and 13057
4hour incubation
  Luminescence, Average: 16276
  Luminescence, individual replicates: 16058 and 16495
6hour incubation
  Luminescence, Average: 27456
  Luminescence, individual replicates: 27109 and 27803
8hour incubation
  Luminescence, Average: 19408
  Luminescence, individual replicates: 19222 and 19594
24hour incubation
  Luminescence, Average: 1271
  Luminescence, individual replicates: 1371 and 1172

## CC1(C)OB(O)c2cc(NC(=O)c3ccc(F)cc3C(F)(F)F)ccc21 [SCYX-7158]
0.5 h
  % Cell viability, single replicates: 82% and 93%
  % Inhibition, single replicates: 18% and 6.51%
0.5 h, average
  % Cell viability: 88%
[1]
  % Inhibition: 12%
1 h
  % Cell viability, single replicates: 78%
  % Inhibition, single replicates: 22%
1 h, average
  % Cell viability: 80%
[2]
  % Inhibition: 20%
2 h
  % Cell viability, single replicates: 84% and 77%
  % Inhibition, single replicates: 16% and 23%
2 h, average
  % Cell viability: 80%
4 h
  % Cell viability, single replicates: 53% and 55%
  % Inhibition, single replicates: 47% and 45%
4 h, average
  % Cell viability: 54%
4 h, mean, suramin, fexinidazole, SCYX-7158 11 µM, CTCB-405 4 µM
  % Inhibition: 46%
6 h
  % Cell viability, single replicates: 30% and 31%
  % Inhibition, single replicates: 70% and 69%
6 h, average
  % Cell viability: 31%
[3]
  % Inhibition: 69%
8 h
  % Cell viability, single replicates: 16% and 15%
  % Inhibition, single replicates: 84% and 85%
8 h, average
  % Cell viability: 16%
[4]
  % Inhibition: 84%
[5]
  % Cell viability, Average: -0.0868%
GVR35 TTK, 24 h incubation
  Luminescence (medium-subtracted), Average: 8.5
  % Cell viability, individual replicates: -0.0698% and -0.104%
  % Inhibition, individual replicates: 100%
  Luminescence (medium-subtracted), individual replicates: 16.5 and 0.5
[6]
  % Inhibition: 100%
[7]
  % Cell viability: -0.085%
0.5 hour incubation
  Luminescence, Average: 8054
  Luminescence, individual replicates: 7697 and 8411
1hour incubation
  Luminescence, Average: 9657
  Luminescence, individual replicates: 9531 and 9783
2hour incubation
  Luminescence, Average: 11337
  Luminescence, individual replicates: 11424 and 11249
4hour incubation
  Luminescence, Average: 9915
  Luminescence, individual replicates: 9827 and 10004
6hour incubation
  Luminescence, Average: 10493
  Luminescence, individual replicates: 10240 and 10745
8hour incubation
  Luminescence, Average: 4975
  Luminescence, individual replicates: 5108 and 4842
24hour incubation
  Luminescence, Average: 8.5
  Luminescence, individual replicates: 17 and 0.5

## CSc1ccc(OCc2ncc([N+](=O)[O-])n2C)cc1 [Fexinidazole, fexinidazole]
  TTK (time-to-kill) value: > 20 h
0.5 h
  % Cell viability, single replicates: 54% and 59%
  % Inhibition, single replicates: 46% and 41%
0.5 h, average
  % Cell viability: 57%
[1]
  % Inhibition: 43%
1 h
  % Cell viability, single replicates: 46% and 57%
  % Inhibition, single replicates: 54%
1 h, average
  % Cell viability: 52%
[2]
  % Inhibition: 48%
2 h
  % Cell viability, single replicates: 61%
  % Inhibition, single replicates: 39%
2 h, average
  % Cell viability: 57%
4 h
  % Cell viability, single replicates: 58% and 63%
  % Inhibition, single replicates: 42% and 37%
4 h, average
  % Cell viability: 61%
6 h
  % Cell viability, single replicates: 62% and 60%
  % Inhibition, single replicates: 38% and 40%
6 h, average
  % Cell viability: 61%
8 h
  % Cell viability, single replicates: 55%
  % Inhibition, single replicates: 45%
8 h, average
  % Cell viability: 55%
[4]
  % Inhibition: 45%
[5]
  % Cell viability, Average: 18%
GVR35 TTK, 24 h incubation
  Luminescence (medium-subtracted), Average: 18856.5
  % Cell viability, individual replicates: 16% and 19%
  % Inhibition, individual replicates: 84% and 81%
  Luminescence (medium-subtracted), individual replicates: 18923.5 and 18789.5
[6]
  % Inhibition: 83%
0.5 hour incubation
  Luminescence, Average: 5213
  Luminescence, individual replicates: 5083 and 5343
1hour incubation
  Luminescence, Average: 6274
  Luminescence, individual replicates: 5678 and 6870
2hour incubation
  Luminescence, Average: 8146
  Luminescence, individual replicates: 8389 and 7903
4hour incubation
  Luminescence, Average: 11135
  Luminescence, individual replicates: 10890 and 11380
6hour incubation
  Luminescence, Average: 20713
  Luminescence, individual replicates: 21007 and 20418
8hour incubation
  Luminescence, Average: 17103
  Luminescence, individual replicates: 17279 and 16927
24hour incubation
  Luminescence, Average: 18857
  Luminescence, individual replicates: 18924 and 18790
